# In article PMC7055022, “A novel TLR7 agonist as adjuvant to stimulate high quality HBsAg-specific immune responses in an HBV mouse model” (Journal of Translational Medicine, 2020):
# Target: T1, human TLR7 (hTLR7) (Homo sapiens, UniProt Q9NYK1)
# T1 sequence (Q9NYK1 27-1049): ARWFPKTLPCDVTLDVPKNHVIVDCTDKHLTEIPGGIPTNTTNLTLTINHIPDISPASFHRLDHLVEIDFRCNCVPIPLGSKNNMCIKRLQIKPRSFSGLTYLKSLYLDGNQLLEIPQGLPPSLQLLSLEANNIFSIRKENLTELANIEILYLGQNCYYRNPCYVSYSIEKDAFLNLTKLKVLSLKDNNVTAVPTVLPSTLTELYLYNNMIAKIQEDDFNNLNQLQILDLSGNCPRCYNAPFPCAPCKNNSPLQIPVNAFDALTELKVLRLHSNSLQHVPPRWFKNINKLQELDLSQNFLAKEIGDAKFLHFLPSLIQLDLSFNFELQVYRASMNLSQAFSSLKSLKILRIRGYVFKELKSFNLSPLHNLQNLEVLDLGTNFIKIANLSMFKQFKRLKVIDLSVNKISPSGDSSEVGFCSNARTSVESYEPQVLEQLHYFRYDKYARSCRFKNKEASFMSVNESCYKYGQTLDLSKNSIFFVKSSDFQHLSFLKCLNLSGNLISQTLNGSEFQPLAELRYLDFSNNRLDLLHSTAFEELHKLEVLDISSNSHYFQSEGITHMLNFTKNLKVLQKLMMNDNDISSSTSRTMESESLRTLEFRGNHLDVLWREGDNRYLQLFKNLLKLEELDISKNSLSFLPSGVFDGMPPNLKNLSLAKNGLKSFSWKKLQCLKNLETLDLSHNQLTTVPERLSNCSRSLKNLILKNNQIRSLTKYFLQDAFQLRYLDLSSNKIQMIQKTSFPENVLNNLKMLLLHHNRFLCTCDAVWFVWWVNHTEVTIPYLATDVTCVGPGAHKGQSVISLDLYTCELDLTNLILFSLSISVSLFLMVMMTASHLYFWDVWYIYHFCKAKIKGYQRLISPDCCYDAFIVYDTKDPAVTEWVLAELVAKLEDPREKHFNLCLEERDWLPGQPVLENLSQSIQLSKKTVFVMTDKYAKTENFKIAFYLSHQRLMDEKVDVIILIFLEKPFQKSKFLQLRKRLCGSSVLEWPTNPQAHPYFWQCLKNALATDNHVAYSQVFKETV
# Test: HEK-Blue hTLR7 SEAP/NF-κB reporter assay (agonist; inactive in hTLR8 cells)
# Type: cell-based
smiles,measurement,value
"C=C(CC)C(=O)c1ccc(OCC(=O)NCc2ccc(Cn3c(O)nc4c(N)nc(OCCOC)nc43)cc2)c(Cl)c1Cl [compound 4, N-(4-((6-amino-8-hydroxy-2-(2-methoxyethoxy)-9H-purin-9-yl)methyl)benzyl)-2-(2,3-dichloro-4-(2-methylenebutanoyl)phenoxy)acetamide]",HEK-Blue hTLR7 SEAP/NF-κB reporter assay (agonist; inactive in hTLR8 cells),T7-EA induced more potent SEAP reaction than T7 in HEK-Blue hTLR7 reporter cells
